Holding throughout (experiment): NCI anticancer screen, dose series, 48 h
For test [1], the system named is RXF 393.
Test [2] deals with NCI-H460.
Test [3] deals with RPMI-8226.
Test [4] relates to NCI-H522.
The subject of test [5] is IGROV-1.
The subject of test [6] is ACHN.
The test system of test [7] is SF-539.
The subject of test [8] is HOP-62.
Test [9] has as its system OVCAR-4.
The subject of test [10] is U-251.
The subject of test [11] is M14.
Test [12] relates to SF-295.
For test [13], the system named is HCT-116.
The subject of test [14] is HT-29.
The test system of test [15] is SN12C.
The subject of test [16] is SK-MEL-2.

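Five compound concentrations were applied to cells in 96-well plates for 48 hours; endpoints were derived by simple linear interpolation of the resulting dose-response curve. GI50: concentration for 50% inhibition of growth.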 Active and inactive are the calls of the source. Cut-off read from the data, not from the text of the source: active = GI50 up to about 1.1 µM and inactive = higher.

As to `COc1ccc(N/N=C(\CCN(C)C)c2ccccc2)cc1`, the GI50 in test [1] is 15.7 µM (inactive); in [2], 3.12 µM (inactive); in [3], 2.39 µM (inactive); in test [4], 10.7 µM (inactive); in test [5], 4.18 µM (inactive); in [6], 1.36 µM (inactive). Further, the GI50 was 1.68 µM (inactive) in test [7]; 2.1 µM (inactive) in [8]; 4.67 µM (inactive) in [9]; 1.79 µM (inactive) in test [10]; 10.9 µM (inactive) in [11]; 0.437 µM (active) in test [12]. Moreover, the GI50 was 3.56 µM (inactive) in test [13], 6.85 µM (inactive) in test [14], 3.9 µM (inactive) in test [15] and 4.49 µM (inactive) in test [16].

On to `Cn1nc(-c2ccccc2)c2c(/C=C/c3ccccc3)onc2c1=O`, for which the GI50 in test [1] is 46.1 µM (inactive); in test [2], > 100 µM (inactive); in [3], > 100 µM (inactive); in test [4] it was 37.3 µM (inactive); in test [5], > 100 µM (inactive); in [6] it was > 100 µM (inactive). In addition, the GI50 is 65.8 µM (inactive) in test [7]; 41.8 µM (inactive) in [8]; 64 µM (inactive) in test [10]; > 100 µM (inactive) in test [11]; 38.9 µM (inactive) in test [12]; > 100 µM (inactive) in test [13]. In addition, the GI50 in [14], in test [15] and in test [16] was > 100 µM (inactive) throughout.

As for `c1cnc2c(c1)-n1cccc1C1(CCSC1)NN2` (stereo not given), the GI50 in test [2], in test [3], in [4], in test [6], in test [7] and in test [8] was > 100 µM (inactive) each time. In addition, the GI50 in test [9], in [10], in test [11], in test [12], in test [13] and in test [14] was > 100 µM (inactive) in each case. Also, the GI50 in test [15] and in test [16] was > 100 µM (inactive) in each case.

Take `O=C1c2cnccc2Cc2cccc3c2N1c1ccccc1S3`: the GI50 in test [1] is 21.6 µM (inactive); in test [3] it was 20.6 µM (inactive); in test [4], 12.5 µM (inactive); in test [5] it was 28 µM (inactive); in [6], 19 µM (inactive); in test [7], 20.6 µM (inactive). The GI50 in test [8] was 20.9 µM (inactive); in test [9], 21.5 µM (inactive); in test [10] it was 16.6 µM (inactive); in test [11], 24.3 µM (inactive); in test [12], 28.2 µM (inactive); in [13], 19 µM (inactive). Moreover, the GI50 in [14] is 23.9 µM (inactive); in test [15] it was 29 µM (inactive); in test [16], 16.8 µM (inactive).

Regarding `COC(=O)C(=O)C1CCCCC(C2=NC3NN=C(N)N3C2=O)C1=O` (stereo not given), the GI50 in test [1] is 63 µM (inactive); in [2], > 100 µM (inactive); in [4], > 100 µM (inactive); in [5] it was > 100 µM (inactive); in test [6] it was > 100 µM (inactive); in test [7], > 100 µM (inactive). Besides, the GI50 in [8], in test [9], in test [10], in [11], in test [12] and in test [13] was > 100 µM (inactive) in each case. In addition, the GI50 in [14], in test [15] and in test [16] was > 100 µM (inactive) throughout.

For the molecule `NCC(=O)OCN1C(=O)C2C3C=CC(C2C1=O)C1C2C(=O)N(COC(=O)CN)C(=O)C2C31` (stereo not given), the GI50 in test [1] was 20.6 µM (inactive); in test [2], 16.6 µM (inactive); in [3], 32.1 µM (inactive); in test [4], 12.5 µM (inactive); in test [5], 41.8 µM (inactive); in [6], 24.5 µM (inactive). Moreover, the GI50 in test [7] was 30.2 µM (inactive); in test [8], > 100 µM (inactive); in [9] it was 20 µM (inactive); in test [10], 22 µM (inactive); in test [11], 20.5 µM (inactive); in test [12], > 100 µM (inactive). In addition, the GI50 is 16.9 µM (inactive) in test [13], 40.6 µM (inactive) in [14], 23.3 µM (inactive) in test [15] and 19.4 µM (inactive) in test [16].

As to `N#CC12CCC(O)C(CC1)C2=O` (stereo not given), the GI50 is > 100 µM (inactive) in test [1]; 70 µM (inactive) in [2]; 26.9 µM (inactive) in test [3]; > 100 µM (inactive) in [4]; > 100 µM (inactive) in test [5]; > 100 µM (inactive) in [6]. Further, the GI50 in test [7], in test [8], in test [9], in test [10], in test [11] and in [12] was > 100 µM (inactive) throughout. In addition, the GI50 in test [13] was 73.1 µM (inactive); in test [14], > 100 µM (inactive); in test [15], > 100 µM (inactive); in [16] it was > 100 µM (inactive).

Take `CCCCc1c2c(nc3c1CCc1cc4c(nc1-3)-c1nc3c(c(CCCC)c1CC4)CCC/C3=C\c1ccccc1)/C(=C/c1ccccc1)CCC2`: the GI50 in test [1] is 23.3 µM (inactive); in [2], 28.2 µM (inactive); in test [3] it was > 100 µM (inactive); in test [4], 44.1 µM (inactive); in [5], 81.5 µM (inactive); in test [7], 33.5 µM (inactive). The GI50 in test [8] was 36.9 µM (inactive); in [10] it was 47.3 µM (inactive); in test [11], > 100 µM (inactive); in [12] it was 78.9 µM (inactive); in test [13], 65.3 µM (inactive); in test [14], 85.3 µM (inactive). The GI50 in test [15] is > 100 µM (inactive); in test [16] it was 35.2 µM (inactive).

`CC(C)OP(=O)(OC(C)C)/C(=N/Nc1ccc([N+](=O)[O-])cc1)NCCN/C(=N\Nc1ccc([N+](=O)[O-])cc1)P(=O)(OC(C)C)OC(C)C`: the GI50 in [2] was 3.71 µM (inactive); in [3], 3.51 µM (inactive); in test [4], 3.22 µM (inactive); in test [5], 2.31 µM (inactive); in [6], 3.56 µM (inactive); in test [7], > 100 µM (inactive). Further, the GI50 is 6.01 µM (inactive) in test [8]; 7.19 µM (inactive) in test [9]; 3.3 µM (inactive) in test [10]; 14.8 µM (inactive) in test [11]; 3.48 µM (inactive) in test [13]; 4.07 µM (inactive) in [15]. Further, in test [16], the GI50 is 4.92 µM (inactive).

In the case of `N#CC1(c2nc3ccccc3o2)C(=O)C(=O)N(c2ccc(Cl)c(Cl)c2)C(=O)C1=O`, the GI50 in [1], in test [2], in test [3], in [4], in [6] and in [8] was > 100 µM (inactive) throughout. Further, the GI50 in test [9] was 58.6 µM (inactive); in test [11], > 100 µM (inactive); in [12], > 100 µM (inactive); in test [14] it was > 100 µM (inactive); in [15], > 100 µM (inactive); in [16] it was > 100 µM (inactive).

`COC(=O)C(Cc1nc2ccccc2nc1O)C(=O)C(=O)Nc1ccc(OC)cc1[N+](=O)[O-]` (stereo not given): the GI50 in test [2], in test [3], in test [4], in [5], in [6] and in test [7] was > 100 µM (inactive) throughout. In addition, the GI50 in test [8], in [9], in [10], in test [11], in test [12] and in test [13] was > 100 µM (inactive) in each case. Besides, the GI50 in test [14] is 82.8 µM (inactive); in test [15] it was > 100 µM (inactive); in test [16] it was > 100 µM (inactive).

`Cc1ccc(NC(=O)C(=O)C(C#N)c2nc(-c3ccc(-c4ccccc4)cc3)cs2)c(C)c1` (stereo not given): the GI50 in test [1], in [2], in test [3], in [5], in test [6] and in test [7] was > 100 µM (inactive) each time. Further, the GI50 in test [8] was > 100 µM (inactive); in test [9] it was > 100 µM (inactive); in [10] it was 47.3 µM (inactive); in [11], > 100 µM (inactive); in [12], > 100 µM (inactive); in test [13], > 100 µM (inactive). Further, the GI50 in test [15] and in test [16] was > 100 µM (inactive) each time.

`COc1cc2c(cc1OC)C(CC1=C(c3ccccc3)CN3CCc4cc(OC)c(OC)cc4C3C1)NCC2` (stereo not given): the GI50 was 2.66 µM (inactive) in test [1]; 18.8 µM (inactive) in test [2]; 9.84 µM (inactive) in test [3]; 16.6 µM (inactive) in test [5]; 24.3 µM (inactive) in test [6]; 14 µM (inactive) in test [9]. Moreover, the GI50 in [10] is 15.2 µM (inactive); in test [11] it was 21.3 µM (inactive); in test [12], 16.8 µM (inactive); in test [14] it was 10.4 µM (inactive); in [15] it was 17.9 µM (inactive); in test [16], 20.5 µM (inactive).

As to `NC(CCC(=O)Nc1ccc(O)cc1)C(=O)O` (stereo not given), the GI50 in [1], in [2], in test [3], in [4], in test [6] and in test [8] was > 100 µM (inactive) each time. Moreover, the GI50 in [9], in test [10], in [11], in [13], in test [14] and in test [15] was > 100 µM (inactive) throughout. Further, the GI50 in [16] was > 100 µM (inactive).

Values taken from ChEMBL document CHEMBL1201862, “PubChem BioAssay data set” (2004).
